Patent publication US20040229207A1 (priority 1999, published 2004)

Tests used:
LAB-1 = test: Antibiotic sensitivity testing of LAB-1; type: cell-based
Method: A variety of biochemical tests were performed in order to identify the species and the genus of organism. The tests included: assessment of growth conditions, culture appearance, cell appearance and staining characteristics, optimal temperature and pH growth range, oxygen requirements, antibiotic sensitivity testing, tests for catalase and oxidase (using TAXOS N™ disks), amino acid utilization as carbon source, nitrogen fixation, motility test, and a variety of commercially available tests from MICRO-ID™, OXYFERM™, ENTEROTUBE™ and BIOLOG GN MICROPLATE™.

LAB-1 strain = test: Inhibition of LAB-1 growth, cell attachment and biofilm production in growth media; type: cell-based; conditions: 0.1-1.0% (w/v) in liquid or solid growth media
Source text: It would be apparent to one of ordinary skill in the art to apply the above methods to inhibit the production of mucoid compounds and biofilm in any mucoid organism.

Compound	Antibiotic Susceptibility (LAB-1)	growth, development, cell attachment and biofilm production of LAB-1 (LAB-1 strain)
NCC[C@H](O)C(=O)N[C@@H]1C[C@H](N)[C@@H](O[C@H]2O[C@H](CN)[C@@H](O)[C@H](O)[C@H]2O)[C@H](O)[C@H]1O[C@H]1O[C@H](CO)[C@@H](O)[C@H](N)[C@H]1O [Amikacin]	sensitive	
CC1(C)S[C@@H]2[C@H](NC(=O)[C@H](N)c3ccccc3)C(=O)N2[C@H]1C(=O)O [Ampicillin]	resistant	
CC[C@H]1OC(=O)[C@H](C)[C@@H](O[C@H]2C[C@@](C)(OC)[C@@H](O)[C@H](C)O2)[C@H](C)[C@@H](O[C@@H]2O[C@H](C)C[C@H](N(C)C)[C@H]2O)[C@](C)(O)C[C@@H](C)C(=O)[C@H](C)[C@@H](O)[C@]1(C)O [Erythromycin]	resistant	
CO[C@@H]1[C@@H](OC(N)=O)[C@@H](O)[C@H](Oc2ccc3c(O)c(NC(=O)c4ccc(O)c(CC=C(C)C)c4)c(=O)oc3c2C)OC1(C)C [Novobiocin]	sensitive	
[H]/N=C(/N)N[C@H]1[C@H](O)[C@@H](O)[C@H](O[C@@H]2O[C@@H](C)[C@](O)(C=O)[C@H]2O[C@@H]2O[C@@H](CO)[C@H](O)[C@@H](O)[C@@H]2NC)[C@@H](N/C(N)=N\[H])[C@@H]1O [Streptomycin]	resistant	
CC(C)Cc1ccc(C(C)C(=O)O)cc1 (stereo not shown) [ibuprofen, 2-(4-isobutylphenyl)-propionic acid]		differentially inhibits
CCC(=O)O [propionic acid]		differentially inhibits
Neomycin	sensitive	
Penicillin	resistant	
Polymyxin B	sensitive	
